Reference: PMC6268252, “Synthesis and Antiviral Activity of Conformational Analogues of Leucamide A” (Molecules, 2012)
Read-outs that look alike come from different tables or passages of the source.

Key:
[1] = system: Influenza A virus H3N2 (A3 China/15/90); experiment: Inhibition of influenza A virus replication (virus-induced CPE) in MDCK cells; format: cell-based; settings: influenza A H3N2 (A3 China/15/90); for IC50: concentration required to reduce virus-induced CPE in MDCK cells by 50%; for activity against influenza A virus (in words): MDCK cells
in vitro = settings: dog
[2] = system: Influenza A virus H3N2 (A3 China/15/90); parameters: method as in PMID 16183283; settings: previously reported active compound; read-out: IC50 against influenza A virus; cited from earlier work
several tumor cell lines = system: several tumor cell lines; parameters: method as in PMID 12098321; settings: cited from earlier work
[3] = system: influenza A virus, herpes simplex type 2 virus (HSV2), hepatitis B virus (HBV); parameters: method as in PMID 16183283, PMID 18663717; settings: reported before; cited from earlier work

| Structure (SMILES) | IC50 [1] [µM] | CC50 (in vitro) [µM] | activity against influenza A virus (in words) [1] | IC50 [2] [µM] | cytotoxicity toward tumor cell lines (in words) (several tumor cell lines) | antiviral activity (in words) [3] |
| --- | --- | --- | --- | --- | --- | --- |
| Cc1oc2nc1C(=O)N[C@@H](C)c1nc(co1)C(=O)NCCCC(=O)N[C@@H](C(C)C)c1nc-2cs1 [Compound 4] | 115 | 595 |  |  |  |  |
| Cc1oc2nc1C(=O)N[C@@H](C)c1nc(co1)C(=O)NCC(=O)N[C@@H](C(C)C)c1nc-2cs1 [Compound 2] |  | > 273 | inactive |  |  |  |
| COc1ccccc1C(=O)N[C@H](c1nc(-c2nc(C(=O)O)c(C)o2)cs1)C(C)C [Compound 10] |  |  |  | 70 |  |  |
| Cc1oc2nc1C(=O)N[C@@H](C)c1nc(co1)C(=O)N[C@@H](CC(C)C)C(=O)N1CCC[C@H]1C(=O)N[C@@H](C(C)C)c1nc-2cs1 [Leucamide A] |  | 787 | inactive |  | moderately cytotoxic | did not show any antiviral activity |
| Cc1oc2nc1C(=O)N[C@@H](C)c1nc(co1)C(=O)NCCC(=O)N[C@@H](C(C)C)c1nc-2cs1 [Compound 3] | 163 | > 265 |  |  |  |  |
| Cc1oc2nc1C(=O)N[C@@H](C)c1nc(co1)C(=O)NCCCCCC(=O)N[C@@H](C(C)C)c1nc-2cs1 [Compound 6] | 41 | 374 |  |  |  |  |
| Cc1oc2nc1C(=O)N[C@@H](C)c1nc(co1)C(=O)NCCCCC(=O)N[C@@H](C(C)C)c1nc-2cs1 [Compound 5] | 258 | 578 |  |  |  |  |
| NC(=O)c1ncn([C@@H]2O[C@H](CO)[C@@H](O)[C@H]2O)n1 [Ribavirin, reference compound] | 16 | > 8200 |  |  |  |  |
